The test system of assay [1] is human bone marrow progenitor CFU-GM. Put plainly: CFU-GM colony assay with normal human bone marrow mononuclear cells. The conditions noted are these: Cond. Med. 5% vol/vol, p43 (PLF) 1 μg/ml, GM-CSF 15 ng/ml; for number of CFU-GM colonies: scored after 14 days. Format: cell-based. As to the method:
Bone marrow samples from 11 healthy volunteer donors were processed by density gradient separation using […] (Sigma diagnostics, St. Louis, Mo., USA) to obtain a purified population of mononuclear cells. Colony assays were performed in a plating medium containing final concentrations of 0.92% methyl cellulose (M-281 powder, 4,000 centipoise, Fisher Scientific Co., Fair Lawn, N.J., USA), rehydrated in Iscove's modified Dulbecco's medium containing 36 mM sodium bicarbonate (Gibco, Grand Island, N.Y., USA), 30% fetal bovine serum (FBS) (HyClone, Logan, Utah, USA) 0.292 mg/ml glutamine, 100 U/ml penicillin and 0.01 mg/ml streptomycin (Biological Industries, Beit Haemek, Israel). Growth factors used were […] GM-CSF Leucomax (Sandoz Pharma) and 5% vol/vol human phytohemagglutinin-M (Difco Laboratories, Detroit, Mich., USA)-induced conditioned medium (Cond. Med.) p43 (PLF) was added at concentration of 1 μg/mL and in neutralization experiments, p43 (PLF) was preincubated with 10× excess of CM-H-9 MoAb at 37° C. for 30 min and the complex added to the assay as above. The colony assay medium contained 10^5 mononuclear cells/ml and each 1 ml was plated into triplicate wells (333 μl/well) of a 24 well tissue culture plate (Greiner, Germany). Water was added to spaces between cells to maximize humidity during incubation of the cultures. The cultures were incubated at 37° C. in 5% CO2 and 55% relative humidity. Plates were scored after 14 days for colonies containing more than 50 cells.

In assay [2] the test system is zymosan induced arthritis (ZIA). The assay can be described thus: Zymosan induced arthritis (ZIA) in mice. Format: in vivo. As to conditions: for Knee swelling Mean +/− SD (n = 10): C48 30 μg/per mouse daily i.p. from day 1 up to 10. As to the method:
Animals: Female ICR mice were obtained from our institution's breeding facilities and were fed a standard diet and tap water ad libidum. Induction of zymosan-induced arthritis: A homogeneous suspension of 25 mg zymosan A (Saccharomyces cerevisiae), dissolves in 1 ml endotoxin-free saline, was obtained by boiling twice followed by sonic emulsification. Arthritis was induced by intrarticular injection of 0.5 mgr/20 l zymosan into each right and left knees. Assessment of ZIA: Mice were evaluated at 14 days post zymosan injections: Swelling was quantitated by measuring the thickness of the knees with a caliper, at 14th day post ZIA and compared to the thickness prior to ZIA. Histologic processing and analysis of knee joints: Knee joints were dissected, fixed, decalcified, dehydrated, and embedded in paraffin. Standard frontal section of 7 μm were prepared and stained with eosin-hematoxilin. Disease severity was assessed by calculation of arthritic index as follows: • Semiquantitative assessment of pathologic findings was performed using a grading system, consisting of five grades. Grade 0: normal synovia; grade 1: 1–5 cellular infiltrates in the microscopic field; grade 2: 6–20 cellular infiltrates; grade 3: 21–50 infiltrates; grade 4: more than […]. • Lymphocytic nodules: grade 1: 1–3 nodules per sectio; grade 2: 4–10 nodules; grade 3: 11–20 nodules; grade 4: more than 20 nodules. • Histiocytes grading: grade 1: 1–10 cell; grade 2: 11–20 cells; grade 3: 21–30 cells; grade 4: more than 30 cells. • Synovial thickness: grade 0: presence of 1 layer of synovial cells; grade 2: 2–3 layers; grade 3: 4–6 layers; grade 4: more than 6 layers. The presence of pannus was considered evidence of severe synovitis. Treatment with C48 (OFF1): Three groups of 10 mice each, were treated by daily intraperitoneal injections of either PBS (control group) or C48 (30 μg/per mouse). Statistical analysis: The significance of comparisons between means was assessed by Student's t-test. Effect of C48 administration on ZIA: Two group of mice (n=10 each) were treated by daily i.p. injections from day 1 up to 10 (10 days), or from day 3 to 10 (7 days) (C48 delayed) following intraarticular zymosan injections. Groups of ZIA mice (n=10) which received daily injections of PBS served as control.

Assay [3] relates to activated human lymphocytes in MLR. The assay can be described thus: Cytokine secretion by activated human lymphocytes in mixed lymphocyte culture (ELISA). Format: cell-based. The conditions noted are these: 24 h culture supernatant. As to the method: In-vitro activation of human lymphocytes without and with C48/OFF1 treatment was carried out in a mixed lymphocyte culture (MLC). Human peripheral blood lymphocytes ([…]) (responder cells) were incubated with non-related Mitomycin C (40 μgr/ml) treated lymphocytes (2×10^6/ml) in RPMI-1640 medium containing 10% Fetal Calf serum and antibiotics. The cultures were incubated for 24 h in a humidified incubator at 37° C. with 5% CO2. Supernatants were collected and the concentration of the secreted cytokines were measured using an ELISA assay kit. The level of IL-2 R, and interferon (Th1 cytokines) and IL-6 and IL-10 (TH2 cytokines) were determined.

From patent publication US7217686B1, “DNA sequence encoding oncofetal ferritin protein” (Gardino Investment N.V., priority 1999, dated 2007) come the findings set out here.

Several values for one entry are separate records, joined by “and”; a condition that tells them apart may be missing. Equal entries are not always repeated.

“GM-CSF: GM-CSF Leucomax (Sandoz Pharma), growth factor used for comparison [reference compound]”: in assay [1] (11 donors), the “MEDIAN number of CFU-GM colonies” value was 144. Also, the “RANGE of number of CFU-GM colonies” value in assay [1] (11 donors) was 50–884. Further, in assay [1] (11 donors), the “mean number of CFU-GM colonies (AVG.)” value is 276+/−257 and 276.2. Further, the “number of CFU-GM colonies” value in assay [1] (Bone Marrow No. 1) is listed as 144; in assay [1] (Bone Marrow No. 2), 396; in assay [1] (Bone Marrow No. 3) it was 114; in assay [1] (Bone Marrow No. 4), 66; in assay [1] (Bone Marrow No. 5), 136; in assay [1] (Bone Marrow No. 6) it was 250. The “number of CFU-GM colonies” value in assay [1] (Bone Marrow No. 7) turned out to be 50; in assay [1] (Bone Marrow No. 8), 74; in assay [1] (Bone Marrow No. 9), 520; in assay [1] (Bone Marrow No. 10) it was 884; in assay [1] (Bone Marrow No. 11) it was 405.

On to “C48/OFF 1: deletion construct encoding the unique C-terminal 48 aa of OFF1, expressed in E. coli as GST fusion protein (FPSPISPSPSCWHHYTTNRPQPQHHLLRPRRRKRPHSIPTPILIFRSP; left off: a dimerising Fc or GST)”, for which, in assay [2] (14 days post zymosan), the “Knee swelling Mean +/− SD (n = 10)” value came to 0.24 mm. Moreover, the “Knee swelling Mean +/− SD (n = 10)” value in assay [2] (14 days post zymosan, listed as C48) is on record as 0.24 +/− 0.56 mm. In addition, the “Knee swelling Mean +/− SD (n = 10), C48 delayed” value in assay [2] (C48 30 μg/per mouse daily i.p. from day 3 to 10, 14 days post zymosan, listed as C48) is 0.33 mm and 0.33 +/− 0.57 mm. Besides, the “Arthritis Score Mean +/− SD (n = 10)” value in assay [2] (C48 daily i.p. from day 1 up to 10, mean grades of pathological findings) is given as 1 +/− 0.83. Besides, in assay [2] (C48 daily i.p. from day 3 to 10, mean grades of pathological findings), the “Arthritis Score Mean +/− SD (n = 10), C48 delayed” value is reported as 0.9 +/− 0.83. In addition, the severity of arthritis result in assay [2] (C48 from day 1 to 10 or from day 3 to 10, compared with PBS) is “very mild”. Besides, in assay [3], the “IL-6 secreted in MLR” value is on record as 170,779 +/− 58,800 u/mL, the “IL-10 secreted in MLR” value is 1125 +/− 332 u/mL, the “sIL-2R secreted in MLR” value amounted to 50 u/mL and the “γ Interferon secreted in MLR” value came out at 46 u/mL.
